Values after ≈ are worked out from the molar mass of the structure shown. Values joined by “and” are separate entries in the source; they are usually repeats but may differ in a detail not shown here. Equal entries are not always repeated.
How the values were obtained:
[1] = system: ESBL-expressing Enterobacteriaceae (n = 33); experiment: Broth microdilution MIC, ceftibuten/Compound 2 vs IV comparators; format: cell-based
[2] = system: KPC-expressing Enterobacteriaceae (n = 77); experiment: organism not typed; format: cell-based
[3] = system: AmpC/CMY-expressing Enterobacteriaceae (n = 44); experiment: Broth microdilution MIC, ceftibuten/Compound 2 vs IV comparators; format: cell-based
[4] = system: OXA-48-expressing Enterobacteriaceae (n = 39); experiment: as above

Compound: NC[C@H]1O[C@H](O[C@H]2[C@H](O)[C@@H](O[C@H]3O[C@H](CO)[C@@H](O)[C@H](N)[C@H]3O)[C@H](N)C[C@@H]2N)[C@H](N)C[C@@H]1O [Tobramycin]
- Number of strains at MIC value 0.5 mg/L ([1]; ESBL-expressing (n = 33)): 3
- Number of strains at MIC value 1 mg/L ([1]; ESBL-expressing (n = 33)): 5
- Number of strains at MIC value 2 mg/L ([1]; ESBL-expressing (n = 33)): 2
- Number of strains at MIC value 4 mg/L ([1]; ESBL-expressing (n = 33)): 1
- Number of strains at MIC value 8 mg/L ([1]; ESBL-expressing (n = 33)): 1
- Number of strains at MIC value 16 mg/L ([1]; ESBL-expressing (n = 33)): 4
- Number of strains at MIC value […] ([1]; ESBL-expressing (n = 33)): 0
- Number of strains at MIC value ≤0.06 mg/L ([1]; ESBL-expressing (n = 33)): 0
- Number of strains at MIC value ≥32 mg/L ([1]; ESBL-expressing (n = 33)): 17
- MIC50 ([1]; iv): ≥ 32 µg/mL
- MIC90 ([1]; iv): ≥ 32 µg/mL
- Number of strains at MIC value 0.5 mg/L ([2]; KPC-expressing (n = 77)): 3
- Number of strains at MIC value 1 mg/L ([2]; KPC-expressing (n = 77)): 0
- Number of strains at MIC value 2 mg/L ([2]; KPC-expressing (n = 77)): 2
- Number of strains at MIC value 4 mg/L ([2]; KPC-expressing (n = 77)): 0
- Number of strains at MIC value 8 mg/L ([2]; KPC-expressing (n = 77)): 3
- Number of strains at MIC value 16 mg/L ([2]; KPC-expressing (n = 77)): 3
- Number of strains at MIC value […] ([2]; KPC-expressing (n = 77)): 0 and 1
- Number of strains at MIC value ≤0.06 mg/L ([2]; KPC-expressing (n = 77)): 0
- Number of strains at MIC value ≥32 mg/L ([2]; KPC-expressing (n = 77)): 65
- MIC50 ([2]; iv): ≥ 32 µg/mL
- MIC90 ([2]; iv): ≥ 32 µg/mL
- Number of strains at MIC value 0.5 mg/L ([3]; AmpC/CMY-expressing (n = 44)): 2
- Number of strains at MIC value 1 mg/L ([3]; AmpC/CMY-expressing (n = 44)): 2
- Number of strains at MIC value 2 mg/L ([3]; AmpC/CMY-expressing (n = 44)): 0
- Number of strains at MIC value 4 mg/L ([3]; AmpC/CMY-expressing (n = 44)): 3
- Number of strains at MIC value 8 mg/L ([3]; AmpC/CMY-expressing (n = 44)): 3
- Number of strains at MIC value 16 mg/L ([3]; AmpC/CMY-expressing (n = 44)): 6
- Number of strains at MIC value […] ([3]; AmpC/CMY-expressing (n = 44)): 0
- Number of strains at MIC value ≤0.06 mg/L ([3]; AmpC/CMY-expressing (n = 44)): 0
- Number of strains at MIC value ≥32 mg/L ([3]; AmpC/CMY-expressing (n = 44)): 28
- MIC50 ([3]; iv): ≥ 32 µg/mL
- MIC90 ([3]; iv): ≥ 32 µg/mL
- MIC50 [4]: 16 µg/mL (≈ 34.2 µM)
- MIC90 [4]: ≥ 32 µg/mL
